From publication PMC7083851, “Extended pharmacodynamic responses observed upon PROTAC-mediated degradation of RIPK2” (Communications Biology, 2020)
“And” between values parts separate entries of the source, which are not always exact repeats. Identical values can stand only once.

Columns and labels:
Hepatocyte CLint, human = type: in vitro ADME; conditions: human liver hepatocytes
Protocol: Metabolic stability was performed at Cyprotex (UK). Pooled liver microsomes / cryopreserved pooled hepatocytes were purchased from a commercial supplier (BD Biosciences or Corning/InVitro Technologies).
The final incubation volume was 500 µL. An appropriate vehicle control was used. Each compound was incubated for 0, 5, 10, 20, 40, and 60 min. The control (vehicle) was incubated for 60 min.
All incubations were terminated by transferring 50 μL of incubate to 100 μL of acetonitrile containing internal standard at the appropriate time points. The termination plates were centrifuged at 2500 rpm for 20–30min at 4 °C to precipitate the protein. Following protein precipitation, samples were analysed using quantitative LC-MS/MS.

[1] = system: L18-MDP-induced cytokine release; assay: In vivo L18-MDP acute inflammation model, serum cytokines (TNFα, IL-6, IL-8); set-up: species or system rat; cytokine level (fig 6a) / cytokine level (fig 6b) / cytokine level (fig 6c): unit not given here; conditions: for cytokine level (fig 6a) / cytokine level (fig 6b) / cytokine level (fig 6c): serum, individual rats, beside L18-MDP control;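 as to cytokine level (fig 6a): time is length of PROTAC pretreatment before a 2 h L18-MDP challenge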;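 as to cytokine level (fig 6b): time is length of PROTAC pretreatment before a 2 h L18-MDP challenge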;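 as to cytokine level (fig 6c): time is length of PROTAC pretreatment before a 2 h L18-MDP challenge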
Protocol: In vivo L18-MDP administration to rodents results in an acute inflammatory response characterised by the rapid production of inflammatory cytokines. […]. […]. Blood concentrations of 6 and 7 tracked closely and dropped below the LLQ after 24 h.
. Cytokine levels were determined in serum generated from the terminal blood samples and in tissue lysates as detailed below.
(§1) Cytokine measurement assay: Cytokine levels were measured in rat plasma or rat PBMCs cell culture supernatants using rat V-Plex TNFα, in human plasma or human PBMCs cell culture supernatants with either TNFα tissue culture or 7-plex kit. Rat serum and tissues samples from the in vivo L18-MDP acute inflammation model were analyzed using the rat TNFα, Il-6 and IL-8 U-Plex kits. All kits provided by Meso Scale Discovery (MSD). Levels of cytokines spontaneously released from human colon biopsies cell culture supernatants were measured using Human IL-1 beta/IL-1F2 DuoSet ELISA (Bio-techne), Human IL-6 ELISA (Immunotools) and Human TNF-alpha DuoSet ELISA (Bio-techne). All samples were processed accordingly to the manufacturer’s instructions. The MSD plates were analyzed using the MSD sector imager 6000 plate reader and cytokines concentration (pg/ml) was obtained by using the MSD DISCOVERY WORKBENCH software version 4.0.12.1
For in vivo studies, RIPK2:tubulin ratios and cytokine levels from each individual experiment were analysed either using a One-way ANOVA with Dunnet’s post-test or a two way ANOVA using GraphPad Prism 5.0.4 to determine statistical significance with 95% confidence levels.

[2] = system: spontaneous IL-1β, IL-6, and TNFα release; assay: Spontaneous cytokine release (IL-1β, IL-6, TNFα) from Crohn's disease patient intestinal biopsies; type: cell-based, human; conditions: for IL-1b (Ctrl=DMSO = 100) / IL-6 (Ctrl=DMSO = 100) / TNFa (Ctrl=DMSO = 100): individual biopsies, fig 4e
Protocol: (§2) Colonic biopsies or tissues were obtained during endoscopy or via surgical resection from Crohn’s Disease (CD) or Ulcerative Colitis (UC) patients (St Bartholomew’s Hospital, London). All patients gave informed written consent. For surgical specimens, the mucosa was dissected away from the submucosa and cut into pieces of ~10–20 mg. […] The supernatants were collected for cytokine measurement as detailed in cytokines assay section while tissues were used to determine RIPK2 levels.
as §1

Caspases 3 and 7 = assay: Caspase 3/7 activation in human PBMCs (Caspase-Glo 3/7), 24 h
[3] = system: spontaneous IL-1β, IL-6, and TNFα release; assay: Spontaneous cytokine release (IL-1β, IL-6, TNFα) from ulcerative colitis patient intestinal biopsies; type: cell-based, human; conditions: for IL-1b (Ctrl=DMSO = 100) / IL-6 (Ctrl=DMSO = 100) / TNFa (Ctrl=DMSO = 100): individual biopsies, fig 4f
Protocol: as §2, §1

cIAP2 = biological target: T1, cIAP2 (Homo sapiens, UniProt Q13489); assay: cIAP2 levels in human PBMCs, 24 h, capillary immunoassay; type: cell-based; conditions: up to 1uM
T1 construct: endogenous in cells; host or cells: primary human PBMCs
T1 sequence (Q13489 whole entry): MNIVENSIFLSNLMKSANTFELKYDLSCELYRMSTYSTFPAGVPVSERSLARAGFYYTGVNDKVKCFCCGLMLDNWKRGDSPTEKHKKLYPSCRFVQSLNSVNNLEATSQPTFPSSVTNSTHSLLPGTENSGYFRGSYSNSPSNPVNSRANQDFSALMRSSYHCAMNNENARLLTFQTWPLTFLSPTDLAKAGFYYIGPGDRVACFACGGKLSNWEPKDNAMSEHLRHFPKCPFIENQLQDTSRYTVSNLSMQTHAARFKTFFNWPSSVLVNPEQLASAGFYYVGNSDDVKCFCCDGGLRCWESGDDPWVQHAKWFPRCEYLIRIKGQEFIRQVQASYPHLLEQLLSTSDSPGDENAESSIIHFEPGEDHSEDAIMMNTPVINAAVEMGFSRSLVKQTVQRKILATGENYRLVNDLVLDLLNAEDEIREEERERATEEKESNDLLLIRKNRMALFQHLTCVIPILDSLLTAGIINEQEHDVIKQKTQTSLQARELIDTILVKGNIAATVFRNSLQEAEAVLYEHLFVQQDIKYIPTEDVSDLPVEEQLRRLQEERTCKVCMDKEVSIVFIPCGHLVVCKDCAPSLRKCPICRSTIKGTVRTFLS
Protocol: Where the assessment of cytokines was performed, L18-MDP was added to the cell culture media (1 μg/ml) or to the rat blood samples (100 ng/ml) and samples were incubated for up to 4 h. For human blood, 250 ng/ml MDP (Invivogen) was added following compound treatment and the samples were further incubated for 5 h. Samples were them spun down at 1000 g and the cell culture supernatant, plasma or serum were collected for cytokines assessment, while cell pellets were used for RIPK2 and/or cIAP1, cIAP2, and XIAP levels analysis via immunoblotting.
Simple Western immunoassay: Cell lysates were mixed with 5× concentrated master mix (Protein Simple) and denatured at 95 °C on a heat block for 5 min together with the provided ladder (Protein Simple). Antibodies were diluted in the provided buffer as following: anti-RIPK2 (1:10 or 1:50), anti-cIAP1(1:10), anti-cIAP2 (1:10), anti-XIAP (1:10), mouse anti-β-actin (Abcam - 1:1000), rabbit anti-β-actin (Abcam - 1:50) and anti-vinculin (1:100). […] All samples were analyzed using the associated Compass software 3.1.7. […]
Cell viability was assessed by using Cell Titer
Kit (Promega) according to the manufacturer’s instructions. Samples were analysed using […]

[4] = Homo sapiens, 24 h, read-out: IC50 inhibition of spontaneous cytokine release

In the case of CN[C@@H](C)C(=O)N[C@H](C(=O)N1CCC[C@H]1c1nc(C(=O)c2ccc(F)cc2)cs1)C1CCN(C(=O)c2cnc(N3CCN(CCOc4cc5ncnc(Nc6n[nH]c(C)c6C)c5cc4S(=O)(=O)C(C)(C)C)CC3)nc2)CC1 [PROTAC 4], the clearance in hepatocytes (Hepatocyte CLint, human) is reported as under 0.45 mL/min/g liver.
With CN[C@@H](C)C(=O)N[C@H](C(=O)N1C[C@@H](NC(=O)c2cnc(N3CCN(CCCOc4cc5ncnc(Nc6n[nH]c(C)c6C)c5cc4S(=O)(=O)C(C)(C)C)CC3)cn2)C[C@H]1C(=O)Nc1c(F)cccc1F)C(C)(C)C [PROTAC 6] the “inhibition of serum cytokines” value ([1]; rat, 0.3 mg/kg SC, intravenous L18-MDP challenge, first three days) was over 75%, the “cytokine level (fig 6a)” value ([1]; time 6 h) was 18.49 (2×) and 16.66 and 19.87 and 20.63 and the “cytokine level (fig 6b)” value ([1]; time 6 h) was 1.67 and 2.89 and 2.19 and 1.98 and 1.58. For the same compound, the “cytokine level (fig 6c)” value ([1]; time 6 h) was 4 (3×) and 5 and 3, the “cytokine level (fig 6a)” value ([1]; time 24 h) was 17.80 and 19.20 and 17.38 and 15.28 and 17.94 and the “cytokine level (fig 6b)” value ([1]; time 24 h) was 3.64 and 5.77 and 5.56 and 2.08 and 8.31. For the same compound, the “cytokine level (fig 6c)” value ([1]; time 24 h) was 1 (3×) and 2 (2×), the “cytokine level (fig 6a)” value ([1]; time 72 h) was 19.88 and 25.30 and 22.33 and 26.08 and 26.21 and the “cytokine level (fig 6b)” value ([1]; time 72 h) was 18.18 and 42.78 and 20.80 and 21.32 and 12.42. The “cytokine level (fig 6c)” value ([1]; time 72 h) was 19 and 9 and 13 and 7 and 24, the “cytokine level (fig 6a)” value ([1]; time 240 h) was 63.85 and 82.37 and 43.93 and 24.16 and 36.40 and the “cytokine level (fig 6b)” value ([1]; time 240 h) was 64.23 and 50.00 and 38.00 and 38.38 and 36.37. The “cytokine level (fig 6c)” value ([1]; time 240 h) was 28 and 68 and 85 and 81 and 23, the “cytokine level (fig 6a)” value ([1]; time 408 h) was 65.92 and 78.49 and 54.66 and 71.18 and 46.33 and the “cytokine level (fig 6b)” value ([1]; time 408 h) was 61.45 and 97.28 and 63.67 and 57.26 and 26.18. For the same compound, the “cytokine level (fig 6c)” value ([1]; time 408 h) was 30 and 38 and 69 and 58 and 40, the IC50 [2, 4] was 1 to 3 nM and the “IL-1b (Ctrl=DMSO = 100)” value ([2]; compound concentration 0.05 nM) was 94 and 86 and 97. The “IL-6 (Ctrl=DMSO = 100)” value ([2]; compound concentration 0.05 nM) was 105 and 101 and 86, the “TNFa (Ctrl=DMSO = 100)” value ([2]; compound concentration 0.05 nM) was 90 and 96 and the “IL-1b (Ctrl=DMSO = 100)” value ([2]; compound concentration 0.5 nM) was 59 and 61 and 39 and 57. For the same compound, the “IL-6 (Ctrl=DMSO = 100)” value ([2]; compound concentration 0.5 nM) was 98 and 80 and 79 and 97 and 84 and 33, the “TNFa (Ctrl=DMSO = 100)” value ([2]; compound concentration 0.5 nM) was 87 (2×) and 88 and 52 and the “IL-1b (Ctrl=DMSO = 100)” value ([2]; compound concentration 5 nM) was 50 and 72 and 71 and 12 and 58 and 31 and 5 and 56 and 44 and 41 (2×) and 49 and 74 and 81. For the same compound, the “IL-6 (Ctrl=DMSO = 100)” value ([2]; compound concentration 5 nM) was 56 and 35 and 85 (2×) and 14 (2×) and 49 and 48 and 89 and 101 and 72 and 66 and 70 and 53, the “TNFa (Ctrl=DMSO = 100)” value ([2]; compound concentration 5 nM) was 38 and 23 and 69 (2×) and 35 (2×) and 42 and 24 and 87 and 58 and 34 and 11 and 66 and 31 and 41 and the “IL-1b (Ctrl=DMSO = 100)” value ([2]; compound concentration 50 nM) was 12 (2×) and 26 and 66 and 31 and 32 and 4 and 29 and 9 and 18 and 69 and 5 and 52 and 14. The “IL-6 (Ctrl=DMSO = 100)” value ([2]; compound concentration 50 nM) was 35 and 29 and 12 (2×) and 31 (2×) and 16 (2×) and 75 and 44 and 24 and 50 and 63 and 23 and 57, the “TNFa (Ctrl=DMSO = 100)” value ([2]; compound concentration 50 nM) was 42 and 16 and 50 (2×) and 37 (2×) and 0 and 30 (2×) and 24 and 78 and 25 and 60 and 34 and 59 and the “effect on caspases 3/7 activation, in words” value (Caspases 3 and 7) was “no”. For the same compound, the IC50 [3, 4] was 1 to 3 nM, the “IL-1b (Ctrl=DMSO = 100)” value ([3]; compound concentration 0.05 nM) was 133 and 73 and 55 and the “IL-6 (Ctrl=DMSO = 100)” value ([3]; compound concentration 0.05 nM) was 93 and 184 and 79 and 87 and 89 and 91. For the same compound, the “TNFa (Ctrl=DMSO = 100)” value ([3]; compound concentration 0.05 nM) was 89 and 94 (2×) and 80 and 99, the “IL-1b (Ctrl=DMSO = 100)” value ([3]; compound concentration 0.5 nM) was 74 and 22 and 52 and 46 and the “IL-6 (Ctrl=DMSO = 100)” value ([3]; compound concentration 0.5 nM) was 92 and 83 and 67 and 77 and 80 and 11 and 42. The “TNFa (Ctrl=DMSO = 100)” value ([3]; compound concentration 0.5 nM) was 130 and 71 and 83 and 70 and 41 and 86, the “IL-1b (Ctrl=DMSO = 100)” value ([3]; compound concentration 5 nM) was 49 and 88 and 62 (2×) and 28 and 58 and 77 and 41 and 55 and 30 and 27 (2×) and 11 and 37 and 67 and 54 and 44 and 40 and 39 and the “IL-6 (Ctrl=DMSO = 100)” value ([3]; compound concentration 5 nM) was 56 and 59 and 11 and 74 and 96 and 85 and 64 and 76 (2×) and 88 and 71 and 79 and 77 and 55 and 44 and 53 and 86 and 25 and 29. The “TNFa (Ctrl=DMSO = 100)” value ([3]; compound concentration 5 nM) was 36 and 47 and 58 and 65 and 88 and 75 and 56 and 78 and 49 and 67 (2×) and 48 and 31 and 86 and 41 and 66 and 57, the “IL-1b (Ctrl=DMSO = 100)” value ([3]; compound concentration 50 nM) was 38 and 22 and 12 (2×) and 95 and 26 and 24 and 43 and 15 and 68 and 21 and 1 and 23 and 39 and 18 and 7 and 11 and 34 and the “IL-6 (Ctrl=DMSO = 100)” value ([3]; compound concentration 50 nM) was 60 and 39 and 68 and 67 and 21 (2×) and 10 and 19 and 76 and 22 and 48 (2×) and 75 and 36 and 35 and 62 and 11 and 24. The “TNFa (Ctrl=DMSO = 100)” value ([3]; compound concentration 50 nM) was 28 and 33 (2×) and 29 (2×) and 4 and 49 and 47 and 53 and 35 and 57 (2×) and 60 and 15 and 56 and 46 and 19 and 25 and 65 and the “change in cIAP2 protein levels, in words” value (cIAP2) was “no change in protein levels”.
